Drawing on article PMC9718554, “Discovery of a fragment hit compound targeting D-Ala:D-Ala ligase of bacterial peptidoglycan biosynthesis” (Journal of Enzyme Inhibition and Medicinal Chemistry, 2022), this text covers remaining activity for 74 compounds.

The assay has as its target T1, E. coli DdlB enzyme (D-alanine:D-alanine ligase) (Escherichia coli, UniProt P07862).
T1 construct: made in house; host or cells: E. coli
The experiment in a line: biochemical. The following applies: for remaining activity at 2100 µM: tested concentration 2.1 mM; for remaining activity at 1900 µM: tested concentration 1.9 mM; for remaining activity at 2200 µM: tested concentration 2.2 mM; for remaining activity at 2800 µM: tested concentration 2.8 mM; for remaining activity at 2300 µM: tested concentration 2.3 mM; for remaining activity at 2000 µM: tested concentration 2.0 mM; for remaining activity at 2400 µM: tested concentration 2.4 mM; for remaining activity at 1800 µM: tested concentration 1.8 mM; for remaining activity at 1700 µM: tested concentration 1.7 mM; for remaining activity at 2900 µM: tested concentration 2.9 mM. The procedure: The fragment library was assayed in a DdlB inhibition assay, where fragments were tested for their ability to inhibit the D-Ala-adding activity of DdlB ligase. The orthophosphate formed during the enzymatic reaction was measured spectrophotometrically using malachite green reagent.
A recombinant E. coli DdlB enzyme (D-alanine:D-alanine ligase) was expressed in E. coli[11]. […] The final DMSO concentration was 5%. […] All experiments were performed in duplicates. […] IC50 values were determined by measuring the residual activities in quadruplicate at seven different compound concentrations and calculated using in GraphPad Prism (GraphPad Software, San Diego, CA, USA).

[1] abbreviates: residual activity of DdlB, fragment library screening, tested concentration 2.5 mM, read-out: DdlB RA.
Where [2] appears, read: residual activity, read-out: DdlB RA.
[3] abbreviates: residual activity of DdlB, fragment library screening, read-out: DdlB RA.

Like-named read-outs stand apart in the source and are kept apart here. Residues, ends and D or L forms follow the SMILES beside them.

As to `CCc1occc(=O)c1O` [FLD104], the remaining activity at 2500 µM under setting [1] amounted to 86%.

In the case of `CCS(=O)(=O)N1CCc2[nH]c(-c3ccccc3)nc2C1` [Compound T147-0013], under setting [2], the remaining activity at 2100 µM turned out to be 81%.

As to `CCOC(=O)Nc1ccccc1` [FLD098], the remaining activity at 2500 µM under setting [1] worked out at 96%.

Regarding `O=C1CS(=O)(=O)C2(CCNCC2)N1c1ccccc1` [Compound T140-0972], the remaining activity at 1900 µM under setting [2] is 93%.

As to `Cn1cnc(S(=O)(=O)NC2CCCCCCC2)c1` [Compound G404-0427], under setting [2], the remaining activity at 2200 µM was found to be 91%.

For `O=C(Nc1ccccc1)Nc1ccc2[nH]c(=O)oc2c1` [Compound G434-0096], the remaining activity at 1900 µM (read-out: DdlB RA) worked out at 75%.

Turning to `N#CC1(N2CCOCC2)CCCC1` [Compound 8019-5695], the remaining activity at 2800 µM under setting [3] was determined as 105%.

For `Cc1cc(C(=O)O)nn1C(F)F` [Compound Y503-2420], the remaining activity at 2800 µM (read-out: DdlB RA) is 85%.

Turning to `OCc1cccc(Oc2ccccc2)c1` [FLD065], the remaining activity at 2500 µM under setting [1] worked out at 100%.

As to `CC(C)c1ccc(Nc2c(O)c(=O)c2=O)cc1` [Compound G317-0548], the remaining activity at 2200 µM (read-out: DdlB RA) is 91%.

As to `Cc1cc(C)c(S(N)(=O)=O)c(Cl)n1` [Compound 8008-1931], under “read-out: DdlB RA”, the remaining activity at 2300 µM amounted to 78%.

For the compound `O=C(O)c1ccccc1NC(=O)C1CCCCC1` [Compound Y030-1673], the remaining activity at 2000 µM (read-out: DdlB RA) is 104%.

On to `CCS(=O)(=O)Nc1c(C)cc(C)cc1C` [Compound Y202-7340], for which the remaining activity at 2400 µM (read-out: DdlB RA) stood at 90%.

Regarding `Cc1c(Br)c(C(=O)O)nn1C` [Compound Y501-6296], under setting [2], the remaining activity at 2300 µM stood at 107%.

As to `OB(O)c1ccc(OCc2ccccc2)c(F)c1` [Compound 1222-0119], for the setting “read-out: DdlB RA”, the remaining activity at 2000 µM turned out to be 98%.

On to `O=C(O)c1c[nH]cn1` [FLD011], for which, under setting [1], the remaining activity at 2500 µM was found to be 100%.

Take `O=C(O)c1cc2ccccc2oc1=O` [FLD109]: the remaining activity at 2500 µM under setting [1] was 96%.

For `CCS(=O)(=O)N1CC2(CC(N3CCCC3)CO2)C1` (stereo not drawn) [SA46-1771], the remaining activity at 1800 µM under setting [2] came out at 90%.

For the compound `N#Cc1ccc(CCO)cc1` [FLD149], under setting [1], the remaining activity at 2500 µM was found to be 100%.

As to `NCC(=O)N[C@@H](Cc1ccc(O)cc1)C(=O)O` [Compound Y043-8421] (H-Gly-Tyr-OH), the remaining activity at 2100 µM (read-out: DdlB RA) stood at 95%.

With `CCC(=O)Nc1ccc2[nH]c(=O)oc2c1` [Compound G434-0836], the remaining activity at 2400 µM (read-out: DdlB RA) stood at 85%.

For `COc1cccc(-c2ncc(C(=O)O)c(=O)[nH]2)c1` [Compound 8020-2801], under setting [2], the remaining activity at 2000 µM amounted to 92%.

With `O=C(O)c1cccnc1NCc1ccc(F)cc1` [Compound 8020-1800], the remaining activity at 2000 µM under setting [2] was determined as 102%.

As for `CC(C)(C)OC(=O)n1c(B(O)O)cc2ccccc21` [Compound 8018-6383], the remaining activity at 1900 µM (read-out: DdlB RA) turned out to be 75%.

As for `Clc1nccs1` [FLD184], under setting [1], the remaining activity at 2500 µM was 98%.

In the case of `Nc1c(C(=O)O)cnc2ccc(F)cc12` [Compound 8020-2302], the remaining activity at 2400 µM (read-out: DdlB RA) worked out at 93%.

Consider `CC(CCc1ccccc1)NC(=O)N1CCOCC1` (stereo not drawn) [Compound Y030-6075], for which, under setting [2], the remaining activity at 2100 µM came to 94%.

`Oc1nnc(-c2ccccc2)c(-c2ccccc2)n1` [Compound 3039-0046]: under setting [2], the remaining activity at 2000 µM is 104%.

As for `CCc1ccc(C(=O)N2CCC(C3CCNC3)CC2)cc1` (stereo not drawn) [Compound S632-2763], the remaining activity at 1700 µM under setting [2] turned out to be 69%.

Consider `N#Cc1nc[nH]c1C#N` [FLD004], for which, where the note is “read-out: DdlB RA”, the remaining activity at 2500 µM is 100%.

In the case of `O=C(O)CCc1cc(=O)[nH]o1` [Compound 8019-7777], the remaining activity at 3200 µM (tested concentration 3.2 mM, read-out: DdlB RA) amounted to 91%.

As to `CC(=O)c1ccc[nH]1` [FLD139], under setting [1], the remaining activity at 2500 µM is 95%.

Turning to `Nc1cc(F)c(F)cc1C(=O)O` [FLD047], under setting [1], the remaining activity at 2500 µM was 92%.

On to `O=C(O)c1ccccc1NC(=O)c1[nH]ncc1[N+](=O)[O-]` [Compound 8010-7769], for which the remaining activity at 1800 µM under setting [2] is 99%.

As to `CC(O)C1CCN(Cc2ccncc2)CC1` (stereo not drawn) [Compound T786-0016], the remaining activity at 2300 µM (read-out: DdlB RA) is 65%.

As to `CN(C)Cc1cc2cc(O)c(-c3cccnc3)cc2n1C` [Compound H027-0236C], the remaining activity at 1600 µM (residual activity, tested concentration 1.6 mM, read-out: DdlB RA) was found to be 84%.

For `O=c1[nH]c2ccc(O)cc2o1` [Compound 8020-7157], the remaining activity at 3300 µM (tested concentration 3.3 mM, read-out: DdlB RA) was determined as 96%.

With `CCn1cc(S(=O)(=O)NC2CCCC2)c2cccnc21` [Compound P633-0557F], the remaining activity at 2000 µM under setting [2] was 89%.

Take `CCc1nnc(C2CCCN(C(=O)C3CCCCC3)C2)[nH]1` (stereo not drawn) [Compound T629-1509]: under setting [2], the remaining activity at 1700 µM came to 71%.

On to `O=[N+]([O-])c1ccc(Cl)nc1` [FLD142], for which, under setting [1], the remaining activity at 2500 µM amounted to 92%.

Regarding `Cc1ccc(O)c(C)c1` [FLD165], the remaining activity at 2500 µM under setting [1] came out at 91%.

As to `CC#CC(=O)N(C)CCc1cn[nH]c1` [Compound T001-1282], the remaining activity at 2900 µM (read-out: DdlB RA) is 86%.

Consider `COCc1cn(C2CNC2)nn1` [Compound S727-0003], for which the remaining activity at 2900 µM under setting [3] was 7.54%.

For the compound `CC1(C)Cc2[nH]c(=O)c(C(=O)O)cc2CO1` [Compound 4965-0162], the remaining activity at 2200 µM under setting [2] is 93%.

For the compound `Oc1nonc1NCc1ccccc1` [Compound 8018-6481], the remaining activity at 2600 µM (tested concentration 2.6 mM, read-out: DdlB RA) was found to be 102%.

Take `Cc1ccc(NS(=O)(=O)c2cnc(O)[nH]c2=O)c(C)c1` [Compound D668-0040]: the remaining activity at 1700 µM (read-out: DdlB RA) came out at 91%.

Turning to `O=C(O)c1ccn(COc2ccc(Cl)cc2Cl)n1` [Compound Y503-2333], the remaining activity at 1700 µM under setting [2] stood at 96%.

For `CCCCC(=O)Nc1ccc(S(N)(=O)=O)cc1` [Compound Y030-9753], the remaining activity at 2000 µM (read-out: DdlB RA) was determined as 96%.

With `O=S(=O)(O)c1nc2ccccc2n1Cc1ccccc1` [Compound 8019-7098], the remaining activity at 1700 µM (read-out: DdlB RA) was 102%.

Consider `CC1CN(c2ccccc2)NC1=O` (stereo not drawn) [Compound 8009-3796], for which the remaining activity at 3400 µM (residual activity of DdlB, fragment library screening, tested concentration 3.4 mM, read-out: DdlB RA) was 97%.

Take `O=C(O)c1ccco1` [FLD096]: under setting [1], the remaining activity at 2500 µM was 95%.

On to `CC(C)(C)C(N)Cn1cccn1` (stereo not drawn) [Compound 8014-1588], for which the remaining activity at 2100 µM under setting [3] turned out to be 99%.

As to `C#CC1(O)C(C)CN(C)CC1C` (stereo not drawn) [Compound 8013-1764], under “residual activity of DdlB, fragment library screening, tested concentration 3.6 mM, read-out: DdlB RA”, the remaining activity at 3600 µM is 97%.

On to `Nc1ccc(Br)cc1N` [FLD118], for which the remaining activity at 2500 µM under setting [1] came out at 90%.

`CC(=O)c1cc2c(cc1C)NC(C)(C)CC2C` (stereo not drawn) [Compound Y021-0953]: the remaining activity at 2400 µM (read-out: DdlB RA) stood at 97%.

In the case of `Nc1cccc(N)c1` [FLD111], the remaining activity at 2500 µM under setting [1] was found to be 92%.

Take `OCc1cccs1` [FLD200]: the remaining activity at 2500 µM under setting [1] was determined as 95%.

Take `CC(C)N1C(=O)C2(CCCC2)C1C(=O)O` (stereo not drawn) [Compound T964-0325]: the remaining activity at 2400 µM (read-out: DdlB RA) was 92%.

As for `O=C(O)c1cc2nccc(-c3ccccc3)n2n1` [Compound 19, 7-Phenylpyrazolo[1,5-a]pyrimidine-2-carboxylic acid], the remaining activity at 1500 µM (at 1.5 mM, read-out: DdlB inhibition, RA (Residual Activity)) was found to be 90%. Moreover, the remaining activity at 5000 µM (at 5 mM, read-out: DdlB inhibition, RA (Residual Activity)) came to 50%.

As for `NCCc1cccc(F)c1` [FLD175], the remaining activity at 2500 µM under setting [1] was 94%.

Take `Cc1c[nH]c(=O)[nH]c1=O` [FLD021]: the remaining activity at 2500 µM under setting [1] was determined as 91%.

For the compound `CN1CCN(C(=O)CCC(=O)O)c2cccnc21` [FF01-3162], where the note is “read-out: DdlB RA”, the remaining activity at 2400 µM turned out to be 65%.

For `CCC1CCCCN1C(=O)C1CCCN1C(C)=O` (stereo not drawn) [Compound Z601-4855], the remaining activity at 2400 µM (read-out: DdlB RA) came to 74%.

`CNC(=O)CCN1C(=O)CSC1c1ccccc1Cl` (stereo not drawn) [Compound V026-8598]: the remaining activity at 1700 µM (read-out: DdlB RA) stood at 109%.

In the case of `Cc1ccccc1CS(=O)(=O)N1CCCC(C)C1` (stereo not drawn) [Compound Y300-2308], the remaining activity at 2200 µM under setting [2] was found to be 95%.

In the case of `Nc1cc[nH]c(=O)n1` [FLD053], the remaining activity at 2500 µM under setting [1] came out at 100%.

On to `Cc1ccccc1C(=O)NCC(=O)O` [FLD033], for which the remaining activity at 2500 µM under setting [1] turned out to be 100%.

As for `COc1ccc2ccc(O)cc2c1` [FLD013], the remaining activity at 2500 µM under setting [1] is 73%.

`CCN1CCOC(=O)C1CC(=O)Nc1ccc(F)cc1` (stereo not drawn) [Compound 8563-1154]: under setting [2], the remaining activity at 2000 µM is 88%.

As to `O=C(Nc1ccccc1)c1nc[nH]c1C(=O)O` [Compound 8011-9089], the remaining activity at 2200 µM under setting [2] came to 104%.

Take `Cc1cc(=O)n(-c2ccccc2)n1C` [FLD081]: the remaining activity at 2500 µM under setting [1] turned out to be 100%.

Consider `COc1ccncc1` [FLD185], for which, under setting [1], the remaining activity at 2500 µM amounted to 99%.

For the compound `CCCC(CCC)n1nc(O)cc1N` [Compound D068-0218], the remaining activity at 2500 µM (tested concentration 2.5 mM, read-out: DdlB RA) is 100%.

On to `Cc1ccc(S(=O)(=O)N2CCOCC2)c(C)c1` [Compound 2488-0460], for which the remaining activity at 2200 µM (read-out: DdlB RA) was found to be 90%.
